These results are taken from US10336739B2, “4-hydroxy-3-(heteroaryl)pyridine-2-one APJ agonists” (BRISTOL-MYERS SQUIBB COMPANY, priority 2015, dated 2019).

What is called EC50 is the midpoint of the concentration-response curve.

human APJ receptor, sequence (P35414 whole entry): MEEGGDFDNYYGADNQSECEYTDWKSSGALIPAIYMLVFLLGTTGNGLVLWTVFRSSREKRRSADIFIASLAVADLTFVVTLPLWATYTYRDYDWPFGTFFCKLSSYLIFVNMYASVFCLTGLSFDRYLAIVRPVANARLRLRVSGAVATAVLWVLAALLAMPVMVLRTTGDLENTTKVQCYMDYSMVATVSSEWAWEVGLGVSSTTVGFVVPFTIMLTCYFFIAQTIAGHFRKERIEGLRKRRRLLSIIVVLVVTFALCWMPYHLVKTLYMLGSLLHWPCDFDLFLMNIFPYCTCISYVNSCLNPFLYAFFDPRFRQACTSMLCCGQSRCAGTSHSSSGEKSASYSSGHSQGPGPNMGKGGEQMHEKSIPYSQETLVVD

One assay addresses human APJ receptor (Homo sapiens (Human), UniProt P35414). The assay can be described thus: Intracellular cAMP accumulation assay (APJ hcAMP, HTRF). In kind it is cell-based. The note with it: HEK293 cells stably expressing human APJ receptor; inhibition of forskolin-mediated cAMP production; read-out: Human APJ cAMP EC50 Potency range. In a few lines: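 cAMP inhibition was quantified by HTRF against a cAMP standard curve, with EC50 fitted to a variable-slope sigmoidal curve. Compounds acted on 5,000 APJ-stable HEK293 cells for 30 minutes at room temperature alongside 2 μM forskolin and […] IBMX. Detection reagents were incubated 60 min.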
A general note: Changes in cAMP serve as a functional read-out for many G protein-coupled receptors.
Turning to `CCOCc1nc(O)c(-c2nnc(Cc3ccc(Cl)cc3)o2)c(O)c1-c1c(O)cccc1OC` (single isomer, unassigned) [Example 223, 3-{5-[(4-chlorophenyl)methyl]-1,3,4-oxadiazol-2-yl}-6-(ethoxymethyl)-5-(2-hydroxy-6-methoxyphenyl)pyridine-2,4-diol], the EC50 lay within 10 to 100 nM.

Still in this assay, the particulars now being: HEK293 cells stably expressing human APJ receptor; inhibition of forskolin-mediated cAMP production; read-out: hAPJ cAMP EC50 (nM) Potency range.
As for `CCOCc1nc(O)c(-c2nnc(Cc3noc4ccccc34)o2)c(O)c1-c1ccccc1OC` [Example 248, 3-{5-[(1,2-benzoxazol-3-yl)methyl]-1,3,4-oxadiazol-2-yl}-6-(ethoxymethyl)-5-(2-methoxyphenyl) pyridine-2,4-diol], the EC50 was 0.01 to 10 nM. Still for that read-out and setting: under `CCCCc1nc(O)c(-c2nnc(CC(=O)NCc3nc4ccccc4s3)o2)c(O)c1-c1c(OC)cccc1OC` [Example 254, N-[(1,3-benzothiazol-2-yl)methyl]-2-{5-[6-butyl-5-(2,6-dimethoxyphenyl)-2,4-dihydroxypyridin-3-yl]-1,3,4-oxadiazol-2-yl}acetamide] stands 0.01 to 10 nM; under `CCOCc1nc(O)c(-c2nnc(Cc3ccc(Cl)cn3)s2)c(O)c1-c1c(OC)cccc1OC` [Example 232, 3-{5-[(5-chloropyridin-2-yl)methyl]-1,3,4-thiadiazol-2-yl}-5-(2,6-dimethoxyphenyl)-6-(ethoxymethyl) pyridine-2,4-diol], 0.01 to 10 nM; under `COCCOCc1nc(O)c(-c2nnc(Cc3noc4ccccc34)o2)c(O)c1-c1c(OC)cccc1OC` [Example 242, 3-{5-[(1,2-benzoxazol-3-yl)methyl]-1,3,4-oxadiazol-2-yl}-5-(2,6-dimethoxyphenyl)-6-[(2-methoxyethoxy)methyl]pyridine-2,4-diol], 10 to 100 nM. Same read-out and setting: the same measure for `CCOCc1nc(O)c(-c2nnc(Cc3ccc(Cl)cc3)o2)c(O)c1-c1ccccc1OC` [Example 249, 3-{5-[(4-chlorophenyl)methyl]-1,3,4-oxadiazol-2-yl}-6-(ethoxymethyl)-5-(2-methoxyphenyl) pyridine-2,4-diol]: 0.01 to 10 nM.

The assay is the same for the next values; noted with them: HEK293 cells stably expressing human APJ receptor; inhibition of forskolin-mediated cAMP production; read-out: hAPJ cAMP EC50 Potency range.
With `CCCCc1nc(O)c(-c2nnc(C(C)(C)c3ccc(Cl)cc3)o2)c(O)c1-c1c(OC)cccc1OC` [Example 31, 6-butyl-3-{5-[2-(4-chlorophenyl)propan-2-yl]-1,3,4-oxadiazol-2-yl}-5-(2,6-dimethoxyphenyl) pyridine-2,4-diol], the EC50 lay in the range of 0.01 to 10 nM.

In the case of `CCCCc1[nH]c(=O)c(-c2nnc(Cc3csc(C)n3)o2)c(O)c1-c1cccc(C(C)C)c1` [Example 148, 6-butyl-4-hydroxy-3-{5-[(2-methyl-1,3-thiazol-4-yl)methyl]-1,3,4-oxadiazol-2-yl}-5-[3-(propan-2-yl)phenyl]-1,2-dihydropyridin-2-one], the EC50 lay in the range of 0.01 to 10 nM.

`CCOCc1nc(O)c(-c2nnc(Cc3cnn(C)c3)o2)c(O)c1-c1c(OC)cccc1OC` [Example 130, 5-(2,6-dimethoxyphenyl)-6-(ethoxymethyl)-3-{5-[(1-methyl-1H-pyrazol-4-yl)methyl]-1,3,4-oxadiazol-2-yl}pyridine-2,4-diol]: the EC50 is 10 to 100 nM. Same read-out and setting: the same measure for `CCCCc1nc(O)c(-c2nnc(CC(=O)N(C)C)o2)c(O)c1-c1c(OC)cccc1OC` [Example 182, 2-{5-[6-butyl-5-(2,6-dimethoxyphenyl)-2,4-dihydroxypyridin-3-yl]-1,3,4-oxadiazol-2-yl}-N,N-dimethylacetamide]: 0.01 to 10 nM; for `CCCCc1nc(O)c(-c2nnc(CCc3nc4ccccc4n3C)o2)c(O)c1-c1c(OC)cccc1OC` [Example 58, 6-butyl-5-(2,6-dimethoxyphenyl)-3-{5-[2-(1-methyl-1H-1,3-benzodiazol-2-yl)ethyl]-1,3,4-oxadiazol-2-yl}pyridine-2,4-diol]: 0.01 to 10 nM; for `CCCCc1nc(O)c(-c2nnc(CNC(=O)c3cccnc3)o2)c(O)c1-c1c(OC)cccc1OC` [Example 160, N-({5-[6-butyl-5-(2,6-dimethoxyphenyl)-2,4-dihydroxypyridin-3-yl]-1,3,4-oxadiazol-2-yl}methyl)pyridine-3-carboxamide]: 0.01 to 10 nM. Still for that read-out and setting: under `CCCCc1nc(O)c(-c2nnc(Cc3ccnc(Cl)c3)o2)c(O)c1-c1c(OC)cccc1OC` [Example 59, 6-butyl-3-{5-[(2-chloropyridin-4-yl)methyl]-1,3,4-oxadiazol-2-yl}-5-(2,6-dimethoxyphenyl) pyridine-2,4-diol] stands 0.01 to 10 nM; under `C=CCCc1nc(O)c(-c2nnc(Cc3ccccc3)o2)c(O)c1-c1c(OC)cccc1OC` [Example 18, 3-(5-benzyl-1,3,4-oxadiazol-2-yl)-6-(but-3-en-1-yl)-5-(2,6-dimethoxyphenyl) pyridine-2,4-diol], 10 to 100 nM.

For the compound `CCCCNC(=O)Cc1nnc(-c2c(O)nc(CCCC)c(-c3c(OC)cccc3OC)c2O)o1` [Example 197, N-butyl-2-{5-[6-butyl-5-(2,6-dimethoxyphenyl)-2,4-dihydroxypyridin-3-yl]-1,3,4-oxadiazol-2-yl}acetamide], the EC50 is 0.01 to 10 nM. The same measure, in the same setting: under `CCCCc1[nH]c(=O)c(-c2nnc(Cc3csc(C)n3)o2)c(O)c1-c1cccc(C2CC2)c1` [Example 150, 6-butyl-5-(3-cyclopropylphenyl)-4-hydroxy-3-{5-[(2-methyl-1,3-thiazol-4-yl)methyl]-1,3,4-oxadiazol-2-yl}-1,2-dihydropyridin-2-one] stands 0.01 to 10 nM.

For `CCOCc1nc(O)c(-c2nnc(Cc3ccc(F)nc3)o2)c(O)c1-c1c(OC)cccc1OC` [Example 131, 5-(2,6-dimethoxyphenyl)-6-(ethoxymethyl)-3-{5-[(6-fluoropyridin-3-yl)methyl]-1,3,4-oxadiazol-2-yl}pyridine-2,4-diol], the EC50 lay in the range of 0.01 to 10 nM.

`CCCCc1nc(O)c(-c2nnc(Cc3ccc(Cl)nc3)o2)c(O)c1-c1c(OC)cccc1OC` [Example 30, 6-butyl-3-{5-[(6-chloropyridin-3-yl)methyl]-1,3,4-oxadiazol-2-yl}-5-(2,6-dimethoxyphenyl) pyridine-2,4-diol]: the EC50 lay in the range of 0.01 to 10 nM. Same read-out and setting: the same measure for `CCCCc1nc(O)c(-c2nnc(CNC(=O)C(F)(F)F)o2)c(O)c1-c1c(OC)cccc1OC` [Example 176, N-({5-[6-butyl-5-(2,6-dimethoxyphenyl)-2,4-dihydroxypyridin-3-yl]-1,3,4-oxadiazol-2-yl}methyl)-2,2,2-trifluoroacetamide]: 10 to 100 nM. Same read-out and setting: the same measure for `CCCCc1nc(O)c(-c2nnc(Cc3noc4ccccc34)o2)c(O)c1-c1c(OC)ccc(F)c1OC` (single isomer, unassigned; isomer 1) [Example 220, 3-[5-(1,2-benzoxazol-3-ylmethyl)-1,3,4-oxadiazol-2-yl]-6-butyl-5-(3-fluoro-2,6-dimethoxyphenyl) pyridine-2,4-diol (isomer 1)]: 10 to 100 nM; for `CCCCc1nc(O)c(-c2nnc(Cc3csc(-c4ccccc4)n3)o2)c(O)c1-c1c(OC)cccc1OC` [Example 46, 6-butyl-5-(2,6-dimethoxyphenyl)-3-{5-[(2-phenyl-1,3-thiazol-4-yl)methyl]-1,3,4-oxadiazol-2-yl}pyridine-2,4-diol]: 0.01 to 10 nM. Same read-out and setting: under `CCCCc1nc(O)c(-c2nnc(COc3ccccc3)o2)c(O)c1-c1c(OC)cccc1OC` [Example 17, 6-butyl-5-(2,6-dimethoxyphenyl)-3-[5-(phenoxymethyl)-1,3,4-oxadiazol-2-yl]pyridine-2,4-diol] stands 10 to 100 nM; under `CCCCc1nc(O)c(-c2nnc(CNC(=O)Cc3ccccc3)o2)c(O)c1-c1c(OC)cccc1OC` [Example 166, N-({5-[6-butyl-5-(2,6-dimethoxyphenyl)-2,4-dihydroxypyridin-3-yl]-1,3,4-oxadiazol-2-yl}methyl)-2-phenylacetamide], 0.01 to 10 nM. For `CCCCc1nc(O)c(-c2nnc(CCc3nc(-c4ccc(OC)cc4)no3)o2)c(O)c1-c1c(OC)cccc1OC` [Example 60, 6-butyl-5-(2,6-dimethoxyphenyl)-3-(5-{2-[3-(4-methoxyphenyl)-1,2,4-oxadiazol-5-yl]ethyl}-1,3,4-oxadiazol-2-yl)pyridine-2,4-diol], the EC50 was in the range of 10 to 100 nM.

`CCCCc1nc(O)c(-c2nnc(Cc3ccc(Cl)c(F)c3)o2)c(O)c1-c1c(OC)cccc1OC` [Example 71, 6-butyl-3-{5-[(4-chloro-3-fluorophenyl)methyl]-1,3,4-oxadiazol-2-yl}-5-(2,6-dimethoxyphenyl) pyridine-2,4-diol]: the EC50 lay within 0.01 to 10 nM.

Turning to `CCCCc1nc(O)c(-c2nnc(CCc3nc(-c4cnccn4)no3)o2)c(O)c1-c1c(OC)cccc1OC` [Example 52, 6-butyl-5-(2,6-dimethoxyphenyl)-3-(5-{2-[3-(pyrazin-2-yl)-1,2,4-oxadiazol-5-yl]ethyl}-1,3,4-oxadiazol-2-yl)pyridine-2,4-diol], the EC50 fell in the range of 0.01 to 10 nM. Turning to `COc1cccc(OC)c1-c1c(C2CC2)[nH]c(=O)c(-c2nnc(Cc3ccc(Cl)cc3)o2)c1O` [Example 93, 3-{5-[(4-chlorophenyl)methyl]-1,3,4-oxadiazol-2-yl}-6-cyclopropyl-5-(2,6-dimethoxyphenyl) pyridine-2,4-diol], the EC50 was in the range of 10 to 100 nM. Consider `CCCCc1nc(O)c(-c2nnc(Cc3nc4ccccc4o3)o2)c(O)c1-c1c(OC)cccc1OC` [Example 25, 3-[5-(1,3-benzoxazol-2-ylmethyl)-1,3,4-oxadiazol-2-yl]-6-butyl-5-(2,6-dimethoxyphenyl) pyridine-2,4-diol], for which the EC50 is 0.01 to 10 nM. The same measure, in the same setting: under `COc1cccc(OC)c1-c1c(C2CC2)nc(O)c(-c2nnc(Cc3noc4ccccc34)o2)c1O` [Example 92, 3-[5-(1,2-benzoxazol-3-ylmethyl)-1,3,4-oxadiazol-2-yl]-6-cyclopropyl-5-(2,6-dimethoxyphenyl) pyridine-2,4-diol] stands 10 to 100 nM. On the same count and under the same terms, the same measure for `CCCCc1nc(O)c(-c2nnc(Cc3ccccc3OC)o2)c(O)c1-c1c(OC)cccc1OC` [Example 6, 6-butyl-5-(2,6-dimethoxyphenyl)-3-{5-[(2-methoxyphenyl)methyl]-1,3,4-oxadiazol-2-yl}pyridine-2,4-diol]: 10 to 100 nM.
